The values that follow come from article PMC5335257, “Promoting in vivo remyelination with small molecules: a neuroreparative pharmacological treatment for Multiple Sclerosis” (Scientific Reports, 2017).

For one test, the system named is GSK-3. Also noted: method as in PMID 24437940. As to conditions: read-out: GSK-3 inhibition IC50; cited from earlier work.
The test system of test [1] is OPCs isolated from P0 mice. The experiment in a line: Differentiation assay, murine OPCs. Format: cell-based, mouse. As to conditions: murine P0 OPCs, 1 μM, 5, 7 and 10 DIV. The procedure: (§1) We isolated OPCs, as previously described. Briefly, a stock papain solution was prepared containing ([…]; Worthington Biochemical), L-cysteine (0.2 mg/ml; Sigma), and EDTA (0.2 mg/ml; Sigma) in Hank’s Balanced Salt Solution (HBSS; Invitrogen) without Ca^2+ and Mg[2]. Then, the cerebral cortices of P0 CD1 mice were dissected out and placed for 5 minutes at 37 °C in a medium containing the stock papain solution in HBSS with Ca^2+ and Mg^2+ (1:10; Invitrogen) in order to easily remove the meninges. Once meninges and choroid plexus were removed, the tissue was enzymatically dissociated for 5 minutes at 37 °C again by using the papain solution (1:10 in HBSS without Ca^2+ and Mg^2+) and the digested tissue was then filtered through a 100 μm nylon mesh strainer (BD Biosciences) and seeded on poly-L-ornithine-coated (Sigma) 75 cm^2 flasks in DMEM medium (Invitrogen) containing 10% foetal bovine serum (FBS; BioWhittaker) and 100 U/mL penicillin, 0.1 mg/mL streptomycin and 0.25 μg/ml Amphotericin B antibiotic antimycotic solution (Sigma). Cultures were maintained at 37 °C and 5% CO2, and the medium was changed every 3 days. When the cultures reached confluence, they were shaken overnight at 250 rpm and at 37 °C in order to detach the OPCs located on the top of the confluent astrocyte monolayer and the medium was then filtered through a 40μm nylon mesh strainer (BDBiosciences) and centrifuged at 900 rpm. Cells were seeded twice (45 minutes each) in bacterial grade Petri dishes (Sterilin) to remove microglial cells. The resulting enriched oligodendrocyte progenitor cell suspension was counted and seeded.
(§2) Purified OPCs were placed on coverslips coated with poly-L-lysine and laminin in 24-well tissue culture dishes at a density of 2 × 10^4 cells/well. To promote differentiation, the cells were maintained in the differentiation medium (described above) and PDE7-GSK3 or GSK3 inhibitors (VP3.15 or TDZD8; 1 μM) were added to the culture medium. Different controls were used for the dual or single inhibitors due to the active substance being dissolved in differing amounts of DMSO. After 5, 7 and 10 DIV the cells were fixed with 4% PFA for further immunocytochemical analysis. Anti-CNPase antibodies (1:200;Covance; Cat#SMI-91R), anti-MBP antibodies (1:200; Serotec; Cat#MCA4095) for detecting oligodendrocytes and anti-Olig2 antibodies (1:250; Millipore; Cat#AB9610) as a marker for all oligodendroglial stages were used. Ten random fluorescence digital images were taken in each coverslip with a DFC480 FX digital camera (Leica) coupled to a Leica DM5000 B microscope for quantification. Data were expressed as a mean ratio of differentiated oligodendrocytes (CNPase^+-Olig2^+ double positive cells) with respect to total Olig2^+ cells ± SEM or percentage of CNPase^+ cells respect to control ± SEM, in at least three independent experiments, except with human samples (two independent experiments).

The subject of test [2] is cerebellar slices demyelinated with LPC. The test is described as follows: Ex vivo remyelination in cerebellar slice cultures demyelinated with LPC. Format: cell-based, CD1 P7 mice. As to conditions: 5 μM, 3 days post lesion (3DPL). The procedure:
The protocol used was modified from previously described. CD1 P7 mice were decapitated, and their cerebella were dissected into ice-cold HBSS (Invitrogen). 300 μm sagittal slices of cerebellum were cut using a McIllwain tissue chopper, placed on Millicell-CM organotypic culture inserts (3 slices per insert; Millipore) in a medium containing HBSS:BME: horse serum (1:2:1, Invitrogen), 28 mM D (+) - glucose (Normapur), […] L-Glutamine (Invitrogen) and 100 U/mL penicillin, 0.1 mg/mL streptomycin and 0.25 μg/ml Amphotericin B antibiotic anti-mycotic solution (Sigma) and maintained at 5% CO2 and 37 °C. Medium was changed every two days, and after 7 days in culture, demyelination was induced by addition of 0.5 mg/ml LPC (Sigma) to the medium for 15 h. After that, slices were treated with fresh medium containing PDE7-GSK3 or GSK3 inhibitors (VP1.15, VP3.15 or TDZD8; 5 μM). Cultures were maintained for 1 or 3 days post lesion (DPL), and then fixed for 40 minutes and immunostained with anti-MBP antibodies (myelin basic protein –as a marker of myelin; 1:200; Serotec; Cat#MCA4095) and anti-neurofilament antibody (as a marker of axons; 1:200; Abcam; Cat#ab8135). Fluorescence images were taken on a confocal SP5 resonant scanner (Leica Microsystems) at 1μm intervals in white matter areas at x40 magnification. The photographs were merged and co-localisation of both markers was quantified with Image J software using the colocalization highlighter plugin. This measurement was related to the area occupied by axons (neurofilament staining) and normalized with control values showing the data as the mean normalized myelination index ± SEM. Quantification was made in at least three independent experiments.

Test [3] has as its system OPCs from P0 mice. The experiment in a line: Survival assay (Casp3+-A2B5+ cells). Format: cell-based, mouse. As to conditions: murine P0 OPCs, 1 μM, 2 DIV. The procedure: as §1, with “When the cultures reached confluence, they were shaken overnight at 250 rpm and at 37 °C in order to detach the OPCs located on the top of the confluent astrocyte monolayer and the medium was then filtered through a 40μm nylon mesh strainer (BDBiosciences) and centrifuged at 900 rpm. Cells were seeded twice (45 minutes each) in bacterial grade Petri dishes (Sterilin) to remove microglial cells.” left out, “seeded. […]” for “seeded.”

In the next test the test system is PDE7. The arrangement: method as in PMID 24437940. As to conditions: cited from earlier work.
The test system of test [4] is OPCs from P0 mice. The experiment in a line: Proliferation assay (BrdU incorporation). Format: cell-based, mouse. As to conditions: murine P0 OPCs, 1 μM, 72 h. The procedure: We isolated OPCs, as previously described. Briefly, a stock papain solution was prepared containing ([…]; Worthington Biochemical), L-cysteine (0.2 mg/ml; Sigma), and EDTA (0.2 mg/ml; Sigma) in Hank’s Balanced Salt Solution (HBSS; Invitrogen) without Ca^2+ and Mg[2]. Then, the cerebral cortices of P0 CD1 mice were dissected out and placed for 5 minutes at 37 °C in a medium containing the stock papain solution in HBSS with Ca^2+ and Mg^2+ (1:10; Invitrogen) in order to easily remove the meninges. […] The resulting enriched oligodendrocyte progenitor cell suspension was counted and seeded.
OPCs were placed on coverslips coated with poly-L-lysine (Sigma) and laminin (Sigma; 2 × 10^4 cells/well) and they were incubated with the inhibitors (VP3.15 or TDZD8; 1 μM) in the serum free medium described above. After 42 h in culture, BrdU (50 μM; Sigma) was added for 6 h and after a total of 72 h in culture, the cells were fixed and BrdU incorporation was detected by immunocytochemistry (1:20; G3G4, HybridomaBank) combined with the detection of the oligodendroglial marker Olig2 (1:250; Millipore; Cat#AB9610). […]

A further test has as its system adult human OPCs. The experiment in a line: Differentiation assay, adult human OPCs. The format is cell-based. As to conditions: adult human OPCs, 1 μM, 5 DIV. The procedure:
Human brain samples were obtained from adult patients of temporal lobe epilepsy resistant to pharmacological treatment or traumatic brain injury; they underwent surgical treatment by the Neurosurgery Service at the Hospital Universitario de La Princesa (Madrid, Spain) and Hospital 12 de Octubre (Madrid, Spain). All tissue samples were obtained under protocols approved by the Research Ethics Committee of Toledo (Spain) review boards. All were conducted in accordance with the Helsinki Declaration and were approved by the Research Ethics Committee of Toledo (Spain). All patients provided informed consent prepared under the guidelines of the Research Ethics Committee at their respective hospital in Madrid (Spain).
For cells obtained from human biopsies, the same protocol was used except that papain solution was used 1:2.5 in HBSS for 10 minutes for meningeal disintegration and 1:10 in HBSS for 15 minutes for the tissue digestion, 25 cm[2] flasks were used, the medium was supplemented with 10 ng/ml of human PDGF-AA (Millipore) for 2 weeks and then incubated for 2 more weeks without growth factors before shaking and the shaking was carried out at 230 rpm instead of 250 rpm.
as §2

What is called IC50 is the concentration that inhibits the measured activity by half. Regarding `Cn1sc(=O)n(Cc2ccccc2)c1=O` [TDZD8, reference compound], the values for the IC50 in the test with GSK-3 and in the test with PDE7 (read-out: PDE7 inhibition IC50) were 690 nM and above 100 µM, respectively. Further, the “number of mature oligodendrocytes (CNPase+-Olig2+ cells) vs control” value in test [1] was “no effect”. Moreover, the “remyelination (normalized myelination index)” value in test [2] is reported as “no effect”. Further, the “OPC survival (Casp3+-A2B5+ apoptotic cells)” value in the test on OPCs from P0 mice [3] is on record as “increased OPC survival”. Further, the PDE7 inhibition entry in the test with PDE7 is recorded as “does not inhibit PDE7”. For the same compound, the “OPC proliferation (BrdU+-Olig2+ cells)” value with OPCs from P0 mice [4] is recorded as “no changes”. Besides, the “number of CNPase+-Olig2+ cells vs control (differentiation)” value in the test with adult human OPCs is given as “did not show any effect”.
